According to PMC7413254 (Nature Communications, 2020):
Like-named read-outs stand apart in the source and are kept apart here.

Legend:
3D7 strain = test: P. falciparum proliferation assay; type: cell-based, Plasmodium falciparum
Method: (§1) Parasite proliferation was measured in 96-well plates using a fluorescent DNA-intercalating dye[68],[69]. Synchronous ring-stage parasite cultures (~1% haematocrit and 1% parasitaemia) were incubated with different concentrations of the test compound for 72 h at 37 °C and under reduced O2 conditions. The assay was terminated by freezing and thawing the samples, after which 100 μL of SYBR Safe DNA Gel Stain (Molecular Probes; 0.2 μL/mL) in a lysis buffer (20 mM Tris-HCl, 5 mM EDTA, 0.008% (w/v) saponin and 0.08% (v/v) Triton X-100; pH 7.5) was added to each well. The fluorescence from each well was measured using a Tecan Infinite M1000 PRO microplate reader (excitation wavelength 490 nm; emission wavelength 520 nm). The fluorescence values for the wells containing the highest concentration of the compound were averaged and this value was then subtracted from each of the well values obtained for that 96-well plate. The level of parasite proliferation in the presence of each compound concentration was expressed as a percentage of the proliferation measured in the absence of the compound. The IC50s were determined in SigmaPlot Windows Version 11.0 by a least-squares fit of the equation y = a/[1 + ([compound]/IC50)^c] to the data, where y is the percent parasite proliferation, a is the maximum change in the percent parasite proliferation, and c is a fitted constant. In all cases, five independent experiments were performed (on different days), and within each experiment measurements were averaged from three replicates.

7G8 strain = test: P. falciparum proliferation assay; type: cell-based, Plasmodium falciparum
Method: as §1

C4^Dd2 parasites = test: P. falciparum proliferation assay; type: cell-based, Plasmodium falciparum
Method: as §1

C6^7G8 parasites = test: P. falciparum proliferation assay; type: cell-based, Plasmodium falciparum
Method: as §1

Dd2 strain = test: P. falciparum proliferation assay; type: cell-based, Plasmodium falciparum
Method: as §1

non-expressing oocytes = test: [3H]VF-6 transport (efflux) from injected Xenopus oocytes; type: cell-based, Xenopus laevis; settings: trans-inhibition, treatment 45 mM
Method: The characterisation of [^3H]VF-6 transport via 23 different field and laboratory-derived isoforms of PfCRT was undertaken with oocytes two days post-cRNA-injection (Figs. 3a–j, 4; Supplementary Fig. 2). The oocytes were injected with 25 nL of ND96 buffer (pH 5.5) supplemented with [^3H]VF-6 and unlabelled VF-6 to achieve estimated intracellular concentrations of 1.4 and 200 μM, respectively. Ten oocytes that had resealed at the injection site were transferred to a 5 mL polystyrene round bottom tube (In Vitro Technologies) and washed with 3.5 mL of ND96 buffer before being transferred to separate wells of a white 96-well plate (PerkinElmer). This treatment served to establish the amount of radioactivity within the oocytes immediately prior to the commencement of the transport assay. Another 10 resealed oocytes were transferred to a 5 mL tube and washed with 3.5 mL of ND96 buffer. The assay commenced with the addition of 100 μL of ND96 buffer and the oocytes were incubated at 27.5 °C for 1.5 h (unless specified otherwise; Fig. 3b). The assay was terminated by removing the reaction buffer with a pipette and washing the oocytes twice with 3.5 mL of ice-cold ND96 buffer. Each oocyte was transferred to a separate well of a white 96-well plate. The oocytes were lysed by the addition of 20 μL of 10% (w/v) SDS and overnight incubation at room temperature. The lysed oocyte was then combined with 150 μL of MicroScint-40 microscintillant (PerkinElmer), the plate covered with a TopSeal-A (PerkinElmer), and the radioactivity measured with a MicroBeta^2 microplate liquid scintillation analyser (PerkinElmer). VF-6 transport was calculated by subtracting the amount of radioactivity (measured in counts per minute) present within the oocytes at the end of the incubation from that measured in the oocytes sampled immediately before the commencement of the assay. The pH-dependence of transport (Fig. 3c) was determined by injecting the oocytes with [^3H]VF-6 suspended in 25 nL ND96 buffer adjusted to pH 5.0, 5.5, 6.0 or 7.0, which corresponded to the injection of 2.5–250 fmol of H^+. The dependence of [^3H]VF-6 transport on Na^+ or Cl^− was examined by injecting the oocytes with [^3H]VF-6 suspended in the control ND96 buffer (pH 5.5) or a version of this buffer that lacked either Na^+ or Cl^− (Supplementary Fig. 2). Na^+ was replaced with 96 mM of KCl and Cl^− was replaced with gluconate salts of Na^+ (NaC6H11O7; 96 mM), K^+ (KC6H11O7; 2 mM), Mg^2+ (MgC12H22O14; 1 mM) and Ca^2+ (CaC12H22O14; 1.8 mM). The dependence of peptide transport on Ca^2+ was determined by injecting the oocytes with [^3H]VF-6 suspended in ND96 buffers that contained different concentrations of Ca^2+ (0–5 mM; Supplementary Fig. 2). […] The dependence of PfCRT-mediated transport on the membrane potential was examined by using (1) Na^+ ionophore III in conjunction with the Na^+ gradients listed in Supplementary Data 7 and (2) Cl^− ionophore III in conjunction with the Cl^− gradients listed in Supplementary Data 7 to clamp the membrane potential of the oocyte from −80 to +80 mV. […] The kinetic parameters for VF-6 transport via different isoforms of PfCRT (Figs. 3e and 4a) were determined in SigmaPlot Windows Version 11.0 by a least-squares fit of the Michaelis–Menten equation to the data.
A subset of assays measured the ability of solutes known to interact with PfCRT to either cis-inhibit, trans-inhibit or trans-stimulate [^3H]VF-6 transport. These experiments involved adding these solutes to either the cis- or trans-side of the membrane relative to [^3H]VF-6. […] At least five independent experiments were performed (on different days and using oocytes from different frogs), and within each experiment measurements were made from ten oocytes per treatment.

[1] = Plasmodium falciparum, 72 h, read-out: IC50 (nM), parasite proliferation, + 1 μM VP, SEM
[2] = Plasmodium falciparum, DD2, 72 h, read-out: IC50 (nM), parasite proliferation, + 1 μM VP, SEM

Row | Molecule | [3H]VF-6 transport, non-expressing oocytes (% PfCRT3D7 control) (non-expressing oocytes; Experiment 1) | [3H]VF-6 transport, non-expressing oocytes (% PfCRT3D7 control) (non-expressing oocytes; Experiment 2) | [3H]VF-6 transport, non-expressing oocytes (% PfCRT3D7 control) (non-expressing oocytes; Experiment 3) | [3H]VF-6 transport, non-expressing oocytes (% PfCRT3D7 control) (non-expressing oocytes; Experiment 4) | [3H]VF-6 transport, non-expressing oocytes (% PfCRT3D7 control) (non-expressing oocytes; Experiment 5) | other results
1 | CCN(CC)CCCC(C)Nc1ccnc2cc(Cl)ccc12 (centres unmarked) [CQ, chloroquine, reference compound] | – | – | – | – | – | IC50 (3D7 strain; Plasmodium falciparum, 3D7, 72 h, 37 °C, SYBR Safe, mean ± SEM, n = 5, read-out: IC50 (nM), parasite proliferation, Control): 25 ± 1.1 nM; IC50 (3D7 strain; Plasmodium falciparum, 3D7, 72 h, read-out: IC50 (nM), parasite proliferation, + 1 μM VP, SEM): 24 ± 0.9 nM; IC50 (7G8 strain; [1]): 28 ± 1.6 nM; IC50 (7G8 strain; Plasmodium falciparum, 72 h, read-out: IC50 (nM), parasite proliferation, Control, SEM): 94 ± 4.4 nM; IC50 (C4^Dd2 parasites; [2]): 26 ± 0.1 nM; IC50 (C6^7G8 parasites; [1]): 25 ± 0.2 nM; IC50 (C6^7G8 parasites; Plasmodium falciparum, C67G8, 72 h, 37 °C, SYBR Safe, mean ± SEM, n = 5, read-out: IC50 (nM), parasite proliferation, Control): 87 ± 2.1 nM; IC50 (Dd2 strain; [2]): 25 ± 1 nM
2 | CC(C)(C)NC(=O)[C@@H]1C[C@@H]2CCCC[C@@H]2CN1C[C@@H](O)[C@H](Cc1ccccc1)NC(=O)[C@H](CC(N)=O)NC(=O)c1ccc2ccccc2n1 [Saquinavir, saquinavir, reference compound] | – | – | – | – | – | IC50 (3D7 strain; Plasmodium falciparum, 3D7, 72 h, 37 °C, SYBR Safe, mean ± SEM, n = 5, read-out: IC50 (μM), parasite proliferation, Control): 7400 ± 300 nM; IC50 (3D7 strain; read-out: IC50 (μM), parasite proliferation, + 1 μM VP, SEM): 5900 ± 600 nM; IC50 (7G8 strain; Plasmodium falciparum, 72 h, read-out: IC50 (μM), parasite proliferation, Control, SEM): 4700 ± 100 nM; IC50 (7G8 strain; read-out: IC50 (μM), parasite proliferation, + 1 μM VP, 7G8, + 1 μM verapamil, 72 h, mean ± SEM, n = 5): 2200 ± 100 nM; IC50 (C4^Dd2 parasites; Plasmodium falciparum, DD2, C4Dd2, 72 h, 37 °C, SYBR Safe, mean ± SEM, n = 5, read-out: IC50 (μM), parasite proliferation, Control): 3500 ± 500 nM; IC50 (C4^Dd2 parasites; read-out: IC50 (μM), parasite proliferation, + 1 μM VP, C4Dd2, + 1 μM verapamil, 72 h, mean ± SEM, n = 5): 1900 ± 100 nM; IC50 (C6^7G8 parasites; Plasmodium falciparum, C67G8, 72 h, 37 °C, SYBR Safe, mean ± SEM, n = 5, read-out: IC50 (μM), parasite proliferation, Control): 4200 ± 400 nM; IC50 (C6^7G8 parasites; read-out: IC50 (μM), parasite proliferation, + 1 μM VP, C67G8, + 1 μM verapamil, 72 h, mean ± SEM, n = 5): 2300 ± 300 nM; IC50 (Dd2 strain; Plasmodium falciparum, DD2, 72 h, read-out: IC50 (μM), parasite proliferation, Control, SEM): 3300 ± 200 nM; IC50 (Dd2 strain; read-out: IC50 (μM), parasite proliferation, + 1 μM VP, Dd2, + 1 μM verapamil, 72 h, mean ± SEM, n = 5): 2100 ± 300 nM
3 | DPVN [VF-6-derived peptide] | 3.68 % PfCRT3D7 control | 3.18 % PfCRT3D7 control | 3.95 % PfCRT3D7 control | 3.69 % PfCRT3D7 control | 3.36 % PfCRT3D7 control | –
4 | DPVNF [VF-6-derived peptide] | 3.25 % PfCRT3D7 control | 3.26 % PfCRT3D7 control | 3.78 % PfCRT3D7 control | 3.25 % PfCRT3D7 control | 3.35 % PfCRT3D7 control | –
5 | PVNF [VF-6-derived peptide] | 4.26 % PfCRT3D7 control | 4.58 % PfCRT3D7 control | 4.28 % PfCRT3D7 control | 4.2 % PfCRT3D7 control | 3.58 % PfCRT3D7 control | –
6 | VDPVN [VF-6-derived peptide] | 3.62 % PfCRT3D7 control | 3.95 % PfCRT3D7 control | 3.26 % PfCRT3D7 control | 3.58 % PfCRT3D7 control | 3.77 % PfCRT3D7 control | –
